Assay results taken from patent US10342837B2, “Extracts and compositions of helichrysum odoratissimum for preventing and treating skin cancers” (University of Pretoria, priority 2013, dated 2019).
Converted amounts (≈) assume the structure as drawn. Numbered stars: 1 amine (or outer) side, 2 acyl side, 3 side chain; on linkers, the order of the positions; unused ones are H or OH. Bridge positions count the residues as written; N and C are the ends. Square brackets hold non-standard residues; d marks the D form. Peptide text beside a SMILES is read from it. I, II: the chains in the order shown. Actinocin(9to1) = Cc1c2oc3c(C)ccc(C(=O)[*:1])c3nc-2c(C(=O)[*:2])c(N)c1=O; NMeV = CN[C@H](C(=O)O)C(C)C; Sar = CNCC(=O)O

Assays:
Format in all cases: cell-based
A431 cells = test: Light microscopy, haematoxylin and eosin staining of A431 cells (apoptosis); details: 0.025 μg/ml, 72 h exposure
Experimental: The specific concentrations of extract were chosen due to the anti-proliferative activity that was observed. Exponentially growing cells were seeded at 100,000 cell per well in 6-well plates on heat-sterilized coverslips. After 24 h incubation at 37° C. and 5% […] for cell adherence, cells were exposed to 15 μg/ml, 30 μg/ml and 7.5 μg/ml of H. odoratissimum extract including vehicle-treated control cells (2% DMSO); cells propagate in growth medium, as well as 0.025 μg/ml Actinomycin D and incubated for 72 h at 37° C. Cells were then fixed in Bouin's fixative for 30 min and stained by standard haematoxylin and eosin staining procedures (Stander et al. 2009).
The influence of H. odoratissimum was compared to a medium control, vehicle-treated control and Actinomycin D (FIG. 3).

IL-8 = IL-8 production in U937 cells (ELISA)
Experimental: (§1) The levels of cytokine production (IL-8 and IL-12) from cell supernatants were measured by enzyme-linked immunosorbent assay (ELISA) according to the manufacturer's protocol (BD Biosciences, San Diego, Calif., USA). The levels of IL-12 were determined as it was reported to act as a potential anti-tumour agent (Brunda et al. 1993). IL-8 was measured as it plays a major role in the progression of various cancer cells by invasion, migration, adhesion, proliferation (Kuai et al. 2012). Briefly U937 cells were plated at a concentration of 2.5×10^5 cell per well in a 24-well plate. The cells were incubated for 24 h with 0.1 μg/ml PMA at 37° C. and 5% CO2 to allow the monocytes to differentiate into macrophages. The cells were treated with various concentrations of H. odoratissimum extracts. Controls included 20 μg/ml pentoxifylline, 5 μg/ml phytohemagglutinin (PHA), as well as vehicle-treated control cells (1% DMSO) and a medium only control. […]
(§2) H. odoratissimum was analyzed at 20 μg/ml, 15 μg/ml, 10 μg/ml and 5 μg/ml to determine whether the extract was able to induce the production of IL-12 and inhibit the production of IL-8 in phytohemagglutinin (PHA) stimulated U937 cells, the results of which are depicted in Table 2.

U937 cells [1] = test: Cytotoxicity on U937 cells; details: U937 cells
Excerpt: (§3) The cytotoxicity of the H. odoratissimum extract was first analyzed on the U937 cells to determine IC50 values at which the extract could be tested when evaluating the cytokine profile and to ensure that the concentrations of phytohemagglutinin (PHA) and pentoxifylline, used to determine the cytokine profile, was not toxic to the U937 cells.

IL-12 = IL-12 production in U937 cells (ELISA); details: for production of IL-12 of the controls compared to the medium control (in words): PHA at 5 μg/ml, pentoxifylline at 20 μg/ml
Experimental: The levels of cytokine production (IL-8 and IL-12) from cell supernatants were measured by enzyme-linked immunosorbent assay (ELISA) according to the manufacturer's protocol (BD Biosciences, San Diego, Calif., USA). The levels of IL-12 were determined as it was reported to act as a potential anti-tumour agent (Brunda et al. 1993). IL-8 was measured as it plays a major role in the progression of various cancer cells by invasion, migration, adhesion, proliferation (Kuai et al. 2012). Briefly U937 cells were plated at a concentration of 2.5×10^5 cell per well in a 24-well plate. The cells were incubated for 24 h with 0.1 μg/ml PMA at 37° C. and 5% CO2 to allow the monocytes to differentiate into macrophages. The cells were treated with various concentrations of H. odoratissimum extracts. Controls included 20 μg/ml pentoxifylline, 5 μg/ml phytohemagglutinin (PHA), as well as vehicle-treated control cells (1% DMSO) and a medium only control. The cells were incubated for a further 20 hrs and thereafter centrifuged at 980 rpm for 5 min to collect the cell free supernatant and analyse the concentration of IL-8 and IL-12.
as §2

U937 cells [2] = test: Cell viability of U937 cells in cytokine production test; details: sample at 5 μg/ml; U937 cells
Experimental: as §1, §2

[3] = Cytotoxicity on U937 cells; details: human
Excerpt: as §3

[4] = Cell viability of U937 cells in cytokine production test; details: human
Experimental: as §1, §2

Compound | A431 cell morphology (in words) (A431 cells) | IL-8 (IL-8; sample at 5 μg/ml) | IC50 (in μg/ml), cytotoxicity on U937 cells (U937 cells [1]) | production of IL-12 of the controls compared to the medium control (in words) (IL-12) | IL-12 (IL-12; sample at 5 μg/ml) | Cell viability in % (U937 cells [2]) | IL-8 (IL-8; sample at 20 μg/ml) | IC50 [3] | IL-12 (IL-12; sample at 20 μg/ml) | viability at 20 h, 20 μg/ml [4]
Cc1c2oc3c(C)ccc(C(=O)N[C@@H]4C(=O)N[C@H](C(C)C)C(=O)N5CCC[C@H]5C(=O)N(C)CC(=O)N(C)[C@@H](C(C)C)C(=O)O[C@@H]4C)c3nc-2c(C(=O)N[C@@H]2C(=O)N[C@H](C(C)C)C(=O)N3CCC[C@H]3C(=O)N(C)CC(=O)N(C)[C@@H](C(C)C)C(=O)O[C@@H]2C)c(N)c1=O [Actinomycin D] (I: T[dV]P[Sar][NMeV] / II: T[dV]P[Sar][NMeV]; ester I:1-I:C, II:1-II:C; linker I:N-II:N via Actinocin(9to1)) | a great amount of cell death and total loss of cell viability |  |  |  |  |  |  |  |  | 
phytohemagglutinin [PHA] |  | 107 ± 5.6 pg/mL | 318 ± 7.8 µg/mL | increase in IL-12 | 9.49 ± 3.8 pg/mL | 101% ± 0.3 |  |  |  | 
CC(=O)CCCCn1c(=O)c2c(ncn2C)n(C)c1=O [Pentoxifylline, pentoxifylline] |  |  |  | inhibition |  |  | 51.2 ± 7.2 pg/mL | 170 ± 6.4 µg/mL (≈ 611 µM) | 1.37 ± 0.9 pg/mL | 106%
